“And” between values parts separate entries of the source, which are not always exact repeats. Equal values may be shown once.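 Dose response: 5 concentrations. Exposure: 48 h. Format: 96-well plates. Endpoint: linear interpolation; highest concentration if not reached. GI50: concentration for 50% inhibition of growth. TGI denotes the concentration required for complete inhibition of growth.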
Tests used:
Test in all cases: DTP human tumour cell line panel, 48 h
SK-OV-3 ovarian = tested on: SK-OV-3 ovarian
SNB-78 CNS = tested on: SNB-78 CNS
UACC-62 melanoma = tested on: UACC-62 melanoma
SN12C renal = tested on: SN12C renal
SK-MEL-5 melanoma = tested on: SK-MEL-5 melanoma
LOX IMVI melanoma = tested on: LOX IMVI melanoma
M19-MEL melanoma = tested on: M19-MEL melanoma
786-0 renal = tested on: 786-0 renal
SR leukemia = tested on: SR leukemia
MDA-MB-435 = tested on: MDA-MB-435
HS 578T breast = tested on: HS 578T breast

Compound | TGI (SK-OV-3 ovarian) | TGI (SNB-78 CNS) | TGI (UACC-62 melanoma) | TGI (SN12C renal) | TGI (SK-MEL-5 melanoma) | TGI (LOX IMVI melanoma) | TGI (M19-MEL melanoma) | TGI (786-0 renal) | TGI (SR leukemia) | GI50 (SNB-78 CNS) | GI50 (SK-OV-3 ovarian) | GI50 (UACC-62 melanoma) | GI50 (SN12C renal) | GI50 (SK-MEL-5 melanoma) | TGI (MDA-MB-435) | TGI (HS 578T breast) | GI50 (LOX IMVI melanoma)
NCCCNCCSP(=O)(O)O | > 750 µM | > 750 µM | > 750 µM | > 750 µM | > 750 µM | > 750 µM | > 750 µM | – | – | – | – | – | – | – | – | – | –
Cc1ccc(N2Cc3c(ccc4ccccc34)OP2(=S)N2CCCC2)cc1 (stereo not drawn) | > 100 µM | > 100 µM | > 100 µM | > 100 µM | > 100 µM | > 100 µM | > 100 µM | – | – | – | – | – | – | – | – | – | –
CN1COCN=C1NC#N | > 100 µM | > 100 µM | > 100 µM | > 100 µM | – | > 100 µM | > 100 µM | – | – | – | – | – | – | – | – | – | –
COC(=O)c1c(CC(=O)OC(C)C)cc2n(c1=O)Cc1c-2nc2ccccc2c1OC | > 100 µM | – | > 100 µM | > 100 µM | > 100 µM | > 100 µM | > 100 µM | > 100 µM | > 100 µM | – | – | – | – | – | – | – | –
O=C(O)C12C=CC(C1)c1ccccc12 (stereo not drawn) | > 100 µM | – | > 100 µM | > 100 µM | > 100 µM | > 100 µM | > 100 µM | > 100 µM | > 100 µM | – | – | – | – | – | – | – | –
CSCSCC(CO)NC(=O)/C=C\c1c(C)[nH]c(=O)[nH]c1=O (stereo not drawn) | 74 µM | 260 µM | 197 µM | 102 µM | 105 µM | 107 µM | 111 µM | – | – | 30.9 µM | – | – | – | – | – | – | –
CCN(CC)CC[n+]1ccc2c(C)c3[nH]c4ccccc4c3c(C)c2c1 | 6.13 µM and 11.7 µM and 11.4 µM | 1.49 µM and 7.14 µM | 1.65 µM and 2.56 µM and 3.75 µM | 1.9 µM and 0.925 µM and 2.68 µM | 1.57 µM and 1.28 µM and 2.45 µM | 2.13 µM and 3.73 µM and 16.3 µM | 0.762 µM and 2 µM | 5.96 µM | 3.01 µM | 0.293 µM and 1.17 µM | 1.35 µM and 2.62 µM and 3.92 µM | 0.491 µM and 0.827 µM and 1.27 µM | 0.195 µM | 0.239 µM | 2.14 µM | 0.933 µM | –
O=c1[nH]c(=S)[nH]c2c1CCCN2 | > 100 µM | > 100 µM | > 100 µM | > 100 µM | > 100 µM | > 100 µM | > 100 µM | > 100 µM | > 100 µM | – | – | – | – | – | – | – | –
COC1CCC(CO)OO1 (stereo not drawn) | > 100 µM | 66.9 µM | > 100 µM | – | – | – | > 100 µM | – | > 100 µM | – | – | – | – | – | – | – | –
N/C(=N\N=C/c1c(O)cc(O)cc1O)NO | > 100 µM | > 100 µM | > 100 µM | > 100 µM | > 100 µM | > 100 µM | > 100 µM | – | – | – | – | – | – | – | – | – | –
Cc1c2cc[n+](C)cc2c(C)c2c1[nH]c1ccc(OCC(F)(F)F)cc12 | > 100 µM | > 100 µM | > 100 µM | – | 11.2 µM and 7.07 µM | > 100 µM | > 24.5 µM | > 100 µM | 23 µM and > 52.1 µM | – | – | – | 0.123 µM | – | – | – | 10.8 µM and 22.8 µM
C=C1C(=O)OC2C[C@@]3(C)CCCC(=C)C3CC12 (stereo partly drawn) | 33.7 µM | 13.5 µM | 18.1 µM | 16.7 µM | 20.4 µM | 2.59 µM | – | – | > 100 µM | – | – | – | – | – | – | – | –
C#CCn1c(I)cc2c(c1=O)COC(=O)[C@]2(O)CC | > 100 µM | – | > 100 µM | > 100 µM | > 100 µM | > 100 µM | – | > 100 µM | > 100 µM | – | – | – | – | – | > 100 µM | > 100 µM | –
Cc1cccc(NC(=S)Nc2cccc(Cl)c2)n1 | 98.6 µM | – | > 100 µM | > 100 µM | > 100 µM | > 100 µM | – | > 100 µM | > 100 µM | – | – | – | – | – | > 100 µM | > 100 µM | –
CC(C)(C1=NC(C(C)(C)C)CO1)C1=N[C@@H](C(C)(C)C)CO1 (stereo partly drawn) | > 100 µM | – | > 100 µM | > 100 µM | > 100 µM | > 100 µM | > 100 µM | > 100 µM | > 100 µM | – | – | – | – | – | – | – | –
C/C(CC(O)(C(F)(F)F)C(F)(F)F)=N\O | > 10 µM | – | > 10 µM | > 10 µM | > 10 µM | > 10 µM | – | > 10 µM | > 10 µM | – | – | – | – | – | > 10 µM | > 10 µM | –
COC(=O)c1ccc(C)cc1C1CN=NC12Cc1cccc(C)c1C2=O (stereo not drawn) | > 100 µM | – | 53.1 µM | > 100 µM | 47.6 µM | 63.9 µM | – | > 100 µM | > 100 µM | – | – | – | – | – | 37.9 µM | > 100 µM | –
C/C(N=NS(=O)(=O)c1c(C)cc(C)cc1C)=C1\C=CC=CN1O | > 100 µM | > 100 µM | > 100 µM | > 100 µM | > 100 µM | – | > 100 µM | > 100 µM | > 100 µM | – | – | – | – | – | – | – | –
CC(=O)N1CCOC12N=NC(C)(C)O2 (stereo not drawn) | > 100 µM | – | > 100 µM | > 100 µM | > 100 µM | > 100 µM | – | > 100 µM | > 100 µM | – | – | – | – | – | > 100 µM | > 100 µM | –
COC1OC(C)/C(=N/O)C2OC(C)(C)OC12 (stereo not drawn) | > 100 µM | – | > 100 µM | > 100 µM | > 100 µM | > 100 µM | – | > 100 µM | > 100 µM | – | – | – | – | – | > 100 µM | > 100 µM | –
CC(C)(C)OC(=O)NCC(c1c[nH]c2ccccc12)c1c[nH]c2ccccc12 | 33.5 µM | – | > 100 µM | 32.7 µM | 26.7 µM | 35.3 µM | – | 32 µM | 32.4 µM | – | – | – | – | – | 31.7 µM | 57.8 µM | –
O=C(Oc1cncc(Cl)c1)c1cc2ccccc2sc1=O | > 100 µM | – | > 100 µM | > 100 µM | > 100 µM | > 100 µM | – | > 100 µM | 76.8 µM | – | – | – | – | – | > 100 µM | > 100 µM | –
O=C(O)c1c(CC(Cc2ccccc2)C(=O)O)ccc2c1CCC2 (stereo not drawn) | > 100 µM | – | > 100 µM | > 100 µM | > 100 µM | > 100 µM | – | > 100 µM | > 100 µM | – | – | – | – | – | > 100 µM | > 100 µM | –
CN1CCC(O)(OC(=O)C(c2ccccc2)C2(O)CCCC2)CC1 (stereo not drawn) | > 100 µM | – | > 100 µM | > 100 µM | > 100 µM | > 100 µM | – | > 100 µM | > 100 µM | – | – | – | – | – | > 100 µM | > 100 µM | –
C#CC(O)/C=C/C(O)CCCC(O)CC#CC(O)C#CCCCCC(O)/C=C/CCCC(=O)CCCCCCCCCCCCCCCC(O)C(O)C#CC(=O)O (stereo not drawn) | > 25 µM | – | > 25 µM | > 25 µM | > 25 µM | 10.4 µM | – | > 25 µM | > 25 µM | – | – | – | – | – | > 25 µM | > 25 µM | –
CN1Cc2ccccc2C2(COc3ccccc3C2=O)C1 (stereo not drawn) | > 100 µM | > 100 µM | > 100 µM | > 100 µM | > 100 µM | > 100 µM | > 100 µM | – | 87.8 µM | – | – | – | – | – | – | – | –
O=Cn1c2ccccc2c2ccccc21 | > 100 µM | > 100 µM | > 100 µM | > 100 µM | > 100 µM | > 100 µM | > 100 µM | > 100 µM | > 100 µM | – | – | – | – | – | – | – | –
C[C@@H]1C[C@@H]2OC(=O)[C@]3(C)[C@H]2[C@@H](OC3(C)O)[C@]2(C)C(=O)C=C[C@@H]12 (stereo partly drawn) | > 100 µM | – | 31.6 µM | 38.1 µM | 51.2 µM | 43 µM | – | > 100 µM | 28.5 µM | – | – | – | – | – | 66.9 µM | > 100 µM | –
Clc1cc(Cl)nc(Nc2ccc3c(c2)CCC3)n1 | > 100 µM | – | > 100 µM | > 100 µM | 57.5 µM | 91.1 µM | – | > 100 µM | 77.6 µM | – | – | – | – | – | > 100 µM | > 100 µM | –
CC(C)=CC(=O)OC1C2C(C)=CC(=O)C(O)C2(C)C2C3(O)OCC24C(CC(=O)OC14)C(C)C3O (stereo not drawn) | 0.709 µM and 3.74 µM | 0.36 µM and 0.153 µM | 0.0313 µM and 0.0404 µM | 0.245 µM and 0.089 µM and 0.327 µM | 0.01 µM and 0.0209 µM | – | 0.0252 µM and 0.027 µM | 0.0834 µM | – | 0.0575 µM | 0.549 µM | 0.0204 µM | 0.0133 µM and 0.0406 µM | 0.02 µM | 0.0103 µM | 0.00523 µM | 0.0298 µM
